Source: ChEMBL document CHEMBL1201862, “PubChem BioAssay data set” (2004)
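Cultured in 96-well plates, cells were exposed to test compound for 48 hours across five concentrations. At the GI50, growth is halved.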 Activity calls are given as the source filed them. Cut-off read from the data, not from the text of the source: active = GI50 up to about 1.1 µM and inactive = higher.

How the values were obtained:
Assay in all cases: growth of human tumour cells (NCI), 48 h
OVCAR-5 = test system: OVCAR-5
MDA-MB-435 = test system: MDA-MB-435
OVCAR-8 = test system: OVCAR-8
BT-549 = test system: BT-549
Hs-578T = test system: Hs-578T
SW-620 = test system: SW-620
HCT-116 = test system: HCT-116
K562 = test system: K562
NCI-H226 = test system: NCI-H226
RPMI-8226 = test system: RPMI-8226
OVCAR-3 = test system: OVCAR-3
RXF 393 = test system: RXF 393
UACC-257 = test system: UACC-257
SK-MEL-28 = test system: SK-MEL-28
SK-OV-3 = test system: SK-OV-3
Malme-3M = test system: Malme-3M
SK-MEL-5 = test system: SK-MEL-5
MDA-N = test system: MDA-N
SR = test system: SR
MOLT-4 = test system: MOLT-4
HCC 2998 = test system: HCC 2998
PC-3 = test system: PC-3
SN12C = test system: SN12C
HOP-92 = test system: HOP-92
UO-31 = test system: UO-31
DU-145 = test system: DU-145
IGROV-1 = test system: IGROV-1
A498 = test system: A498
SF-268 = test system: SF-268
A549 = test system: A549
NCI-H460 = test system: NCI-H460
MCF7 = test system: MCF7
SF-295 = test system: SF-295
SK-MEL-2 = test system: SK-MEL-2
UACC-62 = test system: UACC-62
ACHN = test system: ACHN
U-251 = test system: U-251
EKVX = test system: EKVX
OVCAR-4 = test system: OVCAR-4
KM12 = test system: KM12
SNB-19 = test system: SNB-19
HCT-15 = test system: HCT-15
NCI-H23 = test system: NCI-H23
COLO 205 = test system: COLO 205
M14 = test system: M14
NCI/ADR-RES = test system: NCI/ADR-RES
CCRF-CEM = test system: CCRF-CEM
HL-60 = test system: HL-60
SF-539 = test system: SF-539
786-0 = test system: 786-0
TK-10 = test system: TK-10
HT-29 = test system: HT-29
NCI-H522 = test system: NCI-H522
SNB-75 = test system: SNB-75
CAKI-1 = test system: CAKI-1
MDA-MB-231 = test system: MDA-MB-231
HOP-62 = test system: HOP-62
T47D = test system: T47D
LOX IMVI = test system: LOX IMVI

Structure (SMILES): c1ccc([P+](CC[P+](c2ccccc2)(c2ccccc2)c2ccccc2)(c2ccccc2)c2ccccc2)cc1
- GI50 (OVCAR-5): 44.4 µM (inactive)
- GI50 (MDA-MB-435): 9.64 µM (inactive)
- GI50 (OVCAR-8): 4.82 µM (inactive)
- GI50 (BT-549): 42.3 µM (inactive)
- GI50 (Hs-578T): 7.98 µM (inactive)
- GI50 (SW-620): 3.62 µM (inactive)
- GI50 (HCT-116): 16.5 µM (inactive)
- GI50 (K562): 2.44 µM (inactive)
- GI50 (NCI-H226): > 56.8 µM (inactive)
- GI50 (RPMI-8226): 693 nM (active)
- GI50 (OVCAR-3): 13 µM (inactive)
- GI50 (RXF 393): 27.4 µM (inactive)
- GI50 (UACC-257): 1.19 µM (inactive)
- GI50 (SK-MEL-28): 13.7 µM (inactive)
- GI50 (SK-OV-3): > 84.9 µM (inactive)
- GI50 (Malme-3M): 14.1 µM (inactive)
- GI50 (SK-MEL-5): 8.79 µM (inactive)
- GI50 (MDA-N): 14.4 µM (inactive)
- GI50 (SR): 14.7 µM (inactive)
- GI50 (MOLT-4): 12.6 µM (inactive)
- GI50 (HCC 2998): 7.78 µM (inactive)
- GI50 (PC-3): 6.27 µM (inactive)
- GI50 (SN12C): 9.31 µM (inactive)
- GI50 (HOP-92): 32.6 µM (inactive)
- GI50 (UO-31): > 46.1 µM (inactive)
- GI50 (DU-145): 48.9 µM (inactive)
- GI50 (IGROV-1): 38 µM (inactive)
- GI50 (A498): 5.87 µM (inactive)
- GI50 (SF-268): 6.05 µM (inactive)
- GI50 (A549): 2.49 µM (inactive)
- GI50 (NCI-H460): 5.79 µM (inactive)
- GI50 (MCF7): 32.1 µM (inactive)
- GI50 (SF-295): 33.7 µM (inactive)
- GI50 (SK-MEL-2): 9.38 µM (inactive)
- GI50 (UACC-62): 25.6 µM (inactive)
- GI50 (ACHN): 19.2 µM (inactive)
- GI50 (U-251): 2.94 µM (inactive)
- GI50 (EKVX): 4.76 µM (inactive)
- GI50 (OVCAR-4): 34.3 µM (inactive)
- GI50 (KM12): 15.2 µM (inactive)
- GI50 (SNB-19): 47.4 µM (inactive)
- GI50 (HCT-15): 29 µM
- GI50 (NCI-H23): 26.3 µM (inactive)
- GI50 (COLO 205): 8.81 µM (inactive)
- GI50 (M14): 22.3 µM (inactive)
- GI50 (NCI/ADR-RES): 61.4 µM (inactive)
- GI50 (CCRF-CEM): 250 nM (active)
- GI50 (HL-60): 396 nM (active)
- GI50 (SF-539): 9.42 µM (inactive)
- GI50 (786-0): 21.9 µM (inactive)
- GI50 (TK-10): 12.3 µM (inactive)
- GI50 (HT-29): 23.4 µM (inactive)
- GI50 (NCI-H522): 3.1 µM (inactive)
- GI50 (SNB-75): 20.1 µM (inactive)
- GI50 (CAKI-1): 61.8 µM (inactive)
- GI50 (MDA-MB-231): 38.6 µM (inactive)
- GI50 (HOP-62): 26.4 µM (inactive)
- GI50 (T47D): 4.34 µM (inactive)
- GI50 (LOX IMVI): 63 µM (inactive)

Structure (SMILES): CCOC(=O)CCc1ccc(NC(=O)/C=C/c2ccc([N+](=O)[O-])o2)cc1
- GI50 (OVCAR-5): 2.34 µM (inactive)
- GI50 (MDA-MB-435): 0.316 µM (active)
- GI50 (OVCAR-8): 0.681 µM (active)
- GI50 (BT-549): 2.66 µM (inactive)
- GI50 (Hs-578T): 3.16 µM (inactive)
- GI50 (SW-620): 0.547 µM (active)
- GI50 (HCT-116): 0.685 µM (active)
- GI50 (K562): 0.27 µM (active)
- GI50 (NCI-H226): 4.34 µM (inactive)
- GI50 (RPMI-8226): 286 nM (active)
- GI50 (OVCAR-3): 0.61 µM (active)
- GI50 (RXF 393): 0.794 µM (active)
- GI50 (UACC-257): 0.798 µM (active)
- GI50 (SK-MEL-28): 0.773 µM (active)
- GI50 (SK-OV-3): 9.12 µM (inactive)
- GI50 (Malme-3M): 1.49 µM (inactive)
- GI50 (SK-MEL-5): 1.49 µM (inactive)
- GI50 (MDA-N): 0.807 µM (active)
- GI50 (SR): 0.155 µM (active)
- GI50 (MOLT-4): 0.22 µM (active)
- GI50 (HCC 2998): 2.69 µM (inactive)
- GI50 (PC-3): 3.03 µM (inactive)
- GI50 (SN12C): 1.43 µM (inactive)
- GI50 (HOP-92): 4.04 µM (inactive)
- GI50 (UO-31): 1.61 µM (inactive)
- GI50 (DU-145): 2.1 µM (inactive)
- GI50 (IGROV-1): 3.5 µM (inactive)
- GI50 (A498): 3.14 µM (inactive)
- GI50 (SF-268): 1.12 µM (inactive)
- GI50 (A549): 3.72 µM (inactive)
- GI50 (NCI-H460): 2.34 µM (inactive)
- GI50 (MCF7): 0.426 µM (active)
- GI50 (SF-295): 3.48 µM (inactive)
- GI50 (SK-MEL-2): 2.06 µM (inactive)
- GI50 (UACC-62): 2.12 µM (inactive)
- GI50 (ACHN): 1.34 µM (inactive)
- GI50 (U-251): 2.12 µM (inactive)
- GI50 (EKVX): > 100 µM (inactive)
- GI50 (OVCAR-4): 3.94 µM (inactive)
- GI50 (KM12): 1.56 µM (inactive)
- GI50 (SNB-19): 9.82 µM (inactive)
- GI50 (HCT-15): 1.77 µM
- GI50 (NCI-H23): 0.863 µM (active)
- GI50 (COLO 205): 1.52 µM (inactive)
- GI50 (M14): 0.92 µM (active)
- GI50 (NCI/ADR-RES): 1.78 µM (inactive)
- GI50 (CCRF-CEM): 177 nM (active)
- GI50 (HL-60): 166 nM (active)
- GI50 (SF-539): 1.72 µM (inactive)
- GI50 (786-0): 0.229 µM (active)
- GI50 (TK-10): 1.48 µM (inactive)
- GI50 (HT-29): 0.925 µM (active)
- GI50 (NCI-H522): 0.287 µM (active)
- GI50 (SNB-75): 2.16 µM (inactive)
- GI50 (CAKI-1): 2.47 µM (inactive)
- GI50 (MDA-MB-231): 1.8 µM (inactive)
- GI50 (HOP-62): 3.27 µM (inactive)
- GI50 (T47D): 3.24 µM (inactive)
- GI50 (LOX IMVI): 0.356 µM (active)

Structure (SMILES): CC(=C(C(=O)O)C(=O)O)c1cc(-c2cccs2)cc(-c2ccc(Cl)cc2)c1O
- GI50 (OVCAR-5): 29.4 µM (inactive)
- GI50 (MDA-MB-435): 15.6 µM (inactive)
- GI50 (OVCAR-8): 19.2 µM (inactive)
- GI50 (BT-549): 15.7 µM (inactive)
- GI50 (Hs-578T): > 42.7 µM (inactive)
- GI50 (SW-620): 18.7 µM (inactive)
- GI50 (HCT-116): 13.8 µM (inactive)
- GI50 (K562): 5.3 µM (inactive)
- GI50 (NCI-H226): 21.2 µM (inactive)
- GI50 (RPMI-8226): 2780 nM (inactive)
- GI50 (OVCAR-3): 14.9 µM (inactive)
- GI50 (RXF 393): 14 µM (inactive)
- GI50 (UACC-257): 16.7 µM (inactive)
- GI50 (SK-MEL-28): 17.5 µM (inactive)
- GI50 (SK-OV-3): 33.7 µM (inactive)
- GI50 (Malme-3M): 21.6 µM (inactive)
- GI50 (SK-MEL-5): 19.3 µM (inactive)
- GI50 (MDA-N): 16.3 µM (inactive)
- GI50 (SR): 3.67 µM (inactive)
- GI50 (MOLT-4): 6.41 µM (inactive)
- GI50 (HCC 2998): 18.5 µM (inactive)
- GI50 (PC-3): 13.6 µM (inactive)
- GI50 (SN12C): 15.9 µM (inactive)
- GI50 (HOP-92): 14.9 µM (inactive)
- GI50 (UO-31): 11.9 µM (inactive)
- GI50 (DU-145): 14.4 µM (inactive)
- GI50 (IGROV-1): 15.2 µM (inactive)
- GI50 (A498): 16 µM (inactive)
- GI50 (SF-268): 17.9 µM (inactive)
- GI50 (A549): 20.7 µM (inactive)
- GI50 (NCI-H460): 17.1 µM (inactive)
- GI50 (MCF7): 5.47 µM (inactive)
- GI50 (SF-295): 17.9 µM (inactive)
- GI50 (SK-MEL-2): 32.4 µM (inactive)
- GI50 (UACC-62): 15.3 µM (inactive)
- GI50 (ACHN): 15.8 µM (inactive)
- GI50 (U-251): 14.3 µM (inactive)
- GI50 (EKVX): 17.3 µM (inactive)
- GI50 (OVCAR-4): 26.7 µM (inactive)
- GI50 (KM12): 9.04 µM (inactive)
- GI50 (SNB-19): 15.7 µM (inactive)
- GI50 (HCT-15): 14 µM
- GI50 (NCI-H23): 17.3 µM (inactive)
- GI50 (COLO 205): 22.4 µM (inactive)
- GI50 (M14): 17.7 µM (inactive)
- GI50 (NCI/ADR-RES): 20.3 µM (inactive)
- GI50 (CCRF-CEM): 18700 nM (inactive)
- GI50 (HL-60): 9710 nM (inactive)
- GI50 (SF-539): 14.6 µM (inactive)
- GI50 (786-0): 15.2 µM (inactive)
- GI50 (TK-10): 16.2 µM (inactive)
- GI50 (HT-29): 17.3 µM (inactive)
- GI50 (NCI-H522): 14.3 µM (inactive)
- GI50 (SNB-75): 18 µM (inactive)
- GI50 (CAKI-1): 17.4 µM (inactive)
- GI50 (MDA-MB-231): 18.2 µM (inactive)
- GI50 (HOP-62): 24.1 µM (inactive)
- GI50 (T47D): 6.68 µM (inactive)
- GI50 (LOX IMVI): 13.2 µM (inactive)
